Our source for the Stability and IC50 values is ChEMBL document CHEMBL5042527, “Neochrysosporazines: Precursor-Directed Biosynthesis Defines a Marine-Derived Fungal Natural Product P-Glycoprotein Inhibitory Pharmacophore” (J Med Chem, 2022).

A value given as a limit tells only on which side of the number the result lay.

The nature of one data set: Metabolic stability of the compound in human SW620/AD300 cells assessed as production of metabolite -Deacetylchrysosporazine J at 2.5 uM for 2 to 48 hrs. Type of data set: ADME, cell-based. The settings on record: sw620/ad300, 2.5 µM, time 2-48 hrs.
Regarding `COc1c2c(cc3c1[C@H](c1ccccc1)[C@H]1C(=O)N4C[C@H](Cc5ccccc5)N(C(C)=O)C[C@@H]4[C@@H]31)OCO2`, the Stability result was “Stable”.

The nature of another data set: Cytotoxicity against human […] cells overexpressing P-glycoprotein measured after 48 hrs by MTT assay. It is filed as functional, cell-based.
Details: not given
In general terms: Formazan colour is commonly taken as a measure of viable cells.
For the compound `COc1c2c(cc3c1[C@H](c1ccccc1)[C@H]1C(=O)N4C[C@H](Cc5ccccc5)N(C(C)=O)C[C@@H]4[C@@H]31)OCO2`, the IC50 was more than 30 µM.
The same measure, in the same setting: next, `COc1cc(C[C@H]2CN3C(=O)/C(=C/c4ccccc4)[C@H](c4cc(OC)c5c(c4)OCO5)[C@H]3CN2C(C)=O)cc2c1OCO2`: more than 30 µM.
On the same count and under the same terms, as for `COc1cc([C@H]2/C(=C\c3ccccc3)C(=O)N3C[C@H](Cc4ccccc4)N(C(C)=O)C[C@H]23)cc2c1OCO2`, the figure is more than 30 µM; as for `COc1cc([C@@H]2[C@H]3CN(C(C)=O)[C@@H](Cc4ccccc4)CN3C(=O)[C@@]23O[C@H]3c2ccccc2)cc2c1OCO2`, more than 30 µM; as for `COc1c2c(cc3c1[C@H](c1ccccc1)[C@@]1(O)C(=O)N4C[C@H](Cc5ccccc5)N(C(C)=O)C[C@@H]4[C@@H]31)OCO2`, more than 30 µM.
Regarding `COc1cc(C[C@H]2CN3C(=O)[C@@]4(O[C@H]4c4ccccc4)[C@H](c4cc(OC)c5c(c4)OCO5)[C@H]3CN2C(C)=O)cc2c1OCO2`, the IC50 is more than 30 µM.
In the case of `COc1cc([C@H]2c3cccnc3C(=O)N3C[C@@H](C(=O)c4ccccc4)N(C(C)=O)C[C@H]23)cc2c1OCO2`, the IC50 is more than 30 µM.
The same measure, in the same setting: next, `COc1cc([C@H]2c3cnccc3C(=O)N3C=CN(C(C)=O)C[C@H]23)cc2c1OCO2`: more than 30 µM.
As to `COc1cc(C[C@H]2CN(C(C)=O)[C@@H](Cc3ccccc3)CN2C(=O)/C=C/c2ccccc2)cc2c1OCO2`, the IC50 is more than 30 µM.
As for `COc1c2c(cc3c1[C@H](c1ccccc1)[C@H]1C(=O)N4C[C@H](Cc5ccccc5)NC[C@@H]4[C@@H]31)OCO2`, the half-maximal inhibitory concentration (IC50) is more than 30 µM.
`COC1=C[C@]2(C[C@H]3CN(C(C)=O)[C@@H](Cc4ccccc4)CN3C2=O)OC1=O` displayed an IC50 of more than 30 µM.
For the compound `COc1cc([C@H]2c3ccccc3C(=O)N3C[C@H](Cc4ccccc4)N(C(C)=O)C[C@H]23)cc2c1OCO2`, the IC50 is more than 30 µM.
On the same count and under the same terms, as for `COc1cc([C@H]2c3ncccc3C(=O)N3C[C@H](Cc4ccccc4)N(C(C)=O)C[C@H]23)cc2c1OCO2`, the figure is more than 30 µM; as for `COc1cc(C[C@H]2CN3C(=O)[C@]4(O)[C@@H](c5ccccc5)c5c(cc6c(c5OC)OCO6)[C@@H]4[C@H]3CN2C(C)=O)cc2c1OCO2`, more than 30 µM; as for `COc1cc([C@H]2c3cnccc3C(=O)N3C[C@H](C(=O)c4ccccc4)NC[C@H]23)cc2c1OCO2`, more than 30 µM.
On the same count and under the same terms, next, `COc1cc(C[C@H]2CN(C(C)=O)[C@@H](Cc3ccccc3)CN2C(=O)c2ccncc2)cc2c1OCO2`: more than 30 µM; `COc1cc([C@H]2c3ncccc3C(=O)N3C[C@H](C(=O)c4ccccc4)N(C(C)=O)C[C@H]23)cc2c1OCO2`: more than 30 µM; `COc1cc(/C=C2/C(=O)N3C[C@H](Cc4ccccc4)N(C(C)=O)C[C@@H]3[C@H]2c2cc(OC)c3c(c2)OCO3)ccc1O`: more than 30 µM.
Still for that read-out and setting: as for `COc1cc([C@H]2c3cnccc3C(=O)N3C[C@@H](C(=O)c4ccccc4)N(C(C)=O)C[C@H]23)cc2c1OCO2`, the figure is more than 30 µM; as for `CC(=O)N1C[C@H](Cc2ccccc2)N(C(=O)c2ccccc2)C[C@@H]1Cc1ccccc1`, more than 30 µM.
On to `COc1cc(/C=C2/C(=O)N3C[C@H](Cc4cc(OC)c5c(c4)OCO5)N(C(C)=O)C[C@@H]3[C@H]2c2cc(OC)c3c(c2)OCO3)ccc1O`, for which the half-inhibitory concentration (IC50) was more than 30 µM.
In turn, `COc1cc([C@H]2c3cccnc3C(=O)N3C[C@@H](C(=O)c4ccccc4)NC[C@H]23)cc2c1OCO2` returned a concentration for half-maximal inhibition (IC50) of more than 30 µM.
The compound `COc1cc([C@H]2c3ccccc3C(=O)N3C[C@H](C(=O)c4ccccc4)N(C(C)=O)C[C@H]23)cc2c1OCO2` yielded an IC50 of more than 30 µM.
In the case of `CC(=O)N1C[C@H](Cc2ccccc2)N(C(=O)/C=C/c2ccccc2)C[C@@H]1Cc1ccccc1`, the IC50 is more than 30 µM.
The compound `COc1cc([C@H]2c3ccccc3C(=O)N3C[C@@H](C(=O)c4ccccc4)N(C(C)=O)C[C@H]23)cc(OC)c1O` yielded a half-maximal inhibitory concentration (IC50) of more than 30 µM.
The compound `COc1cc([C@H]2c3cccnc3C(=O)N3C=CN(C(C)=O)C[C@H]23)cc2c1OCO2` came in with a concentration for half-maximal inhibition (IC50) of more than 30 µM.
For `COc1cc(C[C@H]2CN(C(C)=O)[C@@H](Cc3ccccc3)CN2C(=O)c2cccnc2)cc2c1OCO2`, the IC50 was more than 30 µM.
In turn, `COc1cc(C[C@H]2CN3C[C@@H]4[C@@H](c5ccccc5)c5c(cc6c(c5OC)OCO6)[C@@H]4[C@H]3CN2)cc2c1OCO2` showed a half-maximal inhibitory concentration (IC50) of more than 30 µM.
The compound `COc1cc(/C=C/C(=O)N2C[C@H](Cc3cc(OC)c4c(c3)OCO4)N(C(C)=O)C[C@@H]2Cc2cc(OC)c3c(c2)OCO3)ccc1O` came in with an IC50 of more than 30 µM.
On to `COc1cc([C@H]2c3cccnc3C(=O)N3C[C@H](C(=O)c4ccccc4)NC[C@H]23)cc2c1OCO2`, for which the 50% inhibitory concentration (IC50) is more than 30 µM.
Take `COc1cc([C@H]2c3ccccc3C(=O)N3C[C@H](C(=O)c4ccccc4)N(C(C)=O)C[C@H]23)cc(OC)c1O`: the half-maximal inhibitory concentration (IC50) is more than 30 µM.
Still for that read-out and setting: next, `C=C(c1ccccc1)[C@H]1CN2C(=O)c3ncccc3[C@H](c3cc(OC)c4c(c3)OCO4)[C@H]2CN1`: more than 30 µM.
Same read-out and setting: next, `COc1cc([C@H]2c3ncccc3C(=O)N3C=CN(C(C)=O)C[C@H]23)cc2c1OCO2`: more than 30 µM.
As to `COc1cc(C[C@H]2CN3C(=O)/C(=C/c4ccc(O)cc4)[C@H](c4cc(OC)c5c(c4)OCO5)[C@H]3CN2C(C)=O)cc2c1OCO2`, the concentration for half-maximal inhibition (IC50) was more than 30 µM.
In turn, `COc1cc([C@H]2c3cnccc3C(=O)N3C[C@H](C(=O)c4ccccc4)N(C(C)=O)C[C@H]23)cc2c1OCO2` returned a concentration for half-maximal inhibition (IC50) of more than 30 µM.
The same measure, in the same setting: next, `COc1cc([C@H]2c3cccnc3C(=O)N3C[C@H](C(=O)c4ccccc4)N(C(C)=O)C[C@H]23)cc2c1OCO2`: more than 30 µM; `CC(=O)N1C[C@H](Cc2cc(O)c3c(c2)OCO3)N(C(=O)c2ccccc2)C[C@@H]1Cc1ccccc1`: more than 30 µM; `COc1cc([C@H]2c3ccncc3C(=O)N3C[C@H](Cc4ccccc4)N(C(C)=O)C[C@H]23)cc2c1OCO2`: more than 30 µM.
Same read-out and setting: next, `COc1cc([C@H]2c3cccnc3C(=O)N3C[C@H](Cc4ccccc4)N(C(C)=O)C[C@H]23)cc2c1OCO2`: more than 30 µM.
`COc1cc(C[C@H]2CN(C(C)=O)[C@@H](Cc3ccccc3)CN2C(=O)c2ccccc2)cc(OC)c1O` gave an IC50 of more than 30 µM.
Still for that read-out and setting: next, `COc1cc([C@H]2c3ccncc3C(=O)N3C=CN(C(C)=O)C[C@H]23)cc2c1OCO2`: more than 30 µM; `COc1cc([C@H]2c3cnccc3C(=O)N3C[C@H](Cc4ccccc4)N(C(C)=O)C[C@H]23)cc2c1OCO2`: more than 30 µM; `COc1cc([C@H]2c3cnccc3C(=O)N3C[C@@H](C(=O)c4ccccc4)NC[C@H]23)cc2c1OCO2`: more than 30 µM.
`COc1cc([C@H]2c3ccccc3C(=O)N3C=CN(C(C)=O)C[C@H]23)cc2c1OCO2` came in with an IC50 of more than 30 µM.
On the same count and under the same terms, next, `C=C(c1ccccc1)[C@H]1CN2C(=O)c3ccncc3[C@H](c3cc(OC)c4c(c3)OCO4)[C@H]2CN1`: more than 30 µM; `C=C(c1ccccc1)[C@H]1CN2C(=O)c3ccccc3[C@H](c3cc(OC)c4c(c3)OCO4)[C@H]2CN1`: more than 30 µM; `COc1cc(C[C@H]2CN3C(=O)[C@@H]4[C@@H](c5ccccc5)c5c(cc6c(c5OC)OCO6)[C@@H]4[C@H]3CN2C(C)=O)cc2c1OCO2`: more than 30 µM.
The same measure, in the same setting: next, `COc1cc([C@H]2c3ccccc3C(=O)N3C[C@H](C(=O)c4ccccc4)NC[C@H]23)cc2c1OCO2`: more than 30 µM.
`COc1cc(C[C@H]2CN(C(C)=O)[C@@H](Cc3ccccc3)CN2)cc(OC)c1O`: the half-maximal inhibitory concentration (IC50) is more than 30 µM.
`COc1cc([C@H]2/C(=C\c3ccc(O)cc3)C(=O)N3C[C@H](Cc4ccccc4)N(C(C)=O)C[C@H]23)cc2c1OCO2` showed an IC50 of more than 30 µM.
`COc1cc(C[C@H]2CN(C(=O)/C=C/c3ccccc3)[C@@H](Cc3cc(OC)c4c(c3)OCO4)CN2C(C)=O)cc2c1OCO2`: the half-inhibitory concentration (IC50) was more than 30 µM.
The compound `COc1cc(C[C@H]2CN(C(C)=O)[C@@H](Cc3ccccc3)CN2C(=O)c2ccccn2)cc2c1OCO2` showed an IC50 of more than 30 µM.
For `COc1cc(C[C@H]2CN(C(=O)c3ccccc3)[C@@H](Cc3cc(OC)c4c(c3)OCO4)CN2C(C)=O)cc2c1OCO2`, the IC50 is more than 30 µM.

Another data set is described as follows: Metabolic stability of the compound in human SW620/AD300 cells assessed as production of metabolite -Deacetylchrysosporazine F at 2.5 uM for 2 to 48 hrs. Type of data set: ADME, cell-based. Conditions: sw620/ad300, 2.5 µM, time 2-48 hrs.
Regarding `COc1cc(C[C@H]2CN3C(=O)[C@@H]4[C@@H](c5ccccc5)c5c(cc6c(c5OC)OCO6)[C@@H]4[C@H]3CN2C(C)=O)cc2c1OCO2`, the Stability result is reported as “Stable”.

A further data set in a line: Metabolic stability of the compound in human SW620/AD300 cells assessed as production of metabolite -Deacetylchrysosporazine C at 2.5 uM for 2 to 48 hrs. It is filed as ADME, cell-based. Conditions: sw620/ad300, 2.5 µM, time 2-48 hrs.
For the compound `COc1cc([C@H]2c3ccccc3C(=O)N3C[C@H](Cc4ccccc4)N(C(C)=O)C[C@H]23)cc2c1OCO2`, the Stability entry is reported as “Stable”.

The next data set in a line: Metabolic stability of the compound in human SW620/AD300 cells assessed as production of metabolite -Deacetylchrysosporazine B at 2.5 uM for 2 to 48 hrs. Type of data set: ADME, cell-based. The settings on record: sw620/ad300, 2.5 µM, time 2-48 hrs.
Regarding `COc1cc([C@H]2c3ccccc3C(=O)N3C[C@H](C(=O)c4ccccc4)N(C(C)=O)C[C@H]23)cc2c1OCO2`, the Stability entry is “Stable”.

In general, IC50 refers to the point on the concentration scale where inhibition reaches its midpoint. Read a high IC50 as weaker potency in that assay.
